Laboratory results published in patent US7932281B2, “Amine-based compound and use thereof” (Kureha Corporation, priority 2004, dated 2011).

What was measured:
[1] = tested on: SD mice; assay: Acute toxicity, single transvenous administration (Test Example 3); type: in vivo; conditions: 6-week-old male SD mice, 2.5 mg/kg transvenously once in physiological saline
Description: The aforementioned compound was examined for acute toxicity. Specifically, 6-week-old SD mice (male) were divided into several groups (2 to 3 mice in each group). Subsequently, each of the compounds of Examples was dissolved in a physiological saline solution, and the solution was transvenously administered to the mice (dose: 2.5 mg/kg) once. Then, the number of dead mice was counted.

[2] = tested on: HIV-1IIIB infected MT-4 cells; assay: Anti-HIV activity, HIV-1IIIB infected MT-4 cells, MTT method (Test Example 1); type: cell-based; conditions: Human immunodeficiency virus 1, MT4, 120 h, concentration required for inhibition of cell disorder due to HIV infection by 50%, MOI 0.01, 5 days
Description: Immediately after infection, HIV-1IIIB infected MT-4 cells (3.0×10^4/well, MOI (Multiplicity of infection): 0.01) were added to a 96-well microtiter plate together with the test compounds having different concentrations. The cells were cultured in a carbon dioxide incubator at 37° C. for 5 days, and the number of living cells was measured in accordance with the MTT (tetrazolium) method ([…], et al., J. of Virol. Method, 20, 309-321 […]). The antiviral activity is represented by the concentration required for inhibition of cell disorder due to HIV infection by 50% (EC50: 50% Effective Concentration) (μM), and the results are shown in Table 2.

[3] = Conversion of Compound No. 91 to Compound No. 84 in human serum, LCMS (Test Example 5); type: in vitro ADME; conditions: Compound No. 91 incubated in human serum/saline
Description: (§1) 147 μl of human serum pool (manufactured by Cosmo Bio Co. Ltd.) or pool serum obtained by centrifugation (3,500 rpm for 10 minutes) of whole blood collected from a Crj:CD (SD) IGS male rat (manufactured by Charles River Laboratories Japan, INC.) was dispensed in a tube. 147 μl of a physiological saline solution (manufactured by Hikari Pharmaceutical Co., Ltd.) was dispensed thereto. Subsequently, the whole was preincubated for 3 minutes. The solution was added and mixed with a solution (3 μl) obtained by: diluting a 25 mmol/l DMSO solution containing the Compound No. 91 with a physiological saline solution to adjust to 500 μmol/l. The reaction was allowed to start in a thermomixer. After 30 minutes later, the solution was added with 0.1% formic acid/methanol solution (600 μl) and the whole was mixed. The solution was subjected to centrifugation (15,000 rpm for 5 minutes) and the supernatant was subjected to LCMS (liquid chromatograph mass spectrometry) measurement.

[4] = molecular target: T1, CXCR4 (Homo sapiens, UniProt P61073); assay: Inhibition of 125I-SDF-1α binding to receptors CXCR4 on MT-4 cells (Test Example 2); conditions: binding-inhibition % at 0.01 μM, 2 hours under ice-cooling, read-out: Inhibition rate (%)
T1 construct: endogenous in cells; host or cells: MT-4 cells
T1 sequence (P61073 whole entry): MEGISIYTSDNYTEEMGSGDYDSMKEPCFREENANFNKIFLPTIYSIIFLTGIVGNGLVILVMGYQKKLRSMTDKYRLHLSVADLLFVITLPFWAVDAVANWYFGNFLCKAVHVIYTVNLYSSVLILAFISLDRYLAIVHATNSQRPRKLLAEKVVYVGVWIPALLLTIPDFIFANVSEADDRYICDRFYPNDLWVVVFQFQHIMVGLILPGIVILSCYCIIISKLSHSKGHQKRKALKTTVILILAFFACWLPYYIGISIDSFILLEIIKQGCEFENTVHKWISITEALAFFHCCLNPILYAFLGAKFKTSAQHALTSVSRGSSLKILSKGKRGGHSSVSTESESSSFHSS
Description: MT-4 cells (5×10^6/0.2 ml/well) were cultured on a 24-well microtiter plate. After the cells were incubated for 24 hours at 37° C. in a carbon dioxide gas incubator, a culture medium was replaced with a buffer solution (0.1% BSA-containing RPMI-1640). Together with a ligand ^125I-SDF-1α (specific activity: 2,200 Ci/mmol; available from Daiichi Pure Chemicals Co., Ltd. (Tokyo)), test materials with various concentrations were subjected to a binding reaction for 2 hours under ice-cooling. […] Then, a rate of inhibition of the binding between radioactive ligands and receptors CXCR4 by a test material was calculated (a binding-inhibition % at 0.01 μM).

[5] = Conversion of Compound No. 91 to Compound No. 84 in rat serum, LCMS (Test Example 5); type: in vitro ADME; conditions: Compound No. 91 incubated in rat serum/saline
Description: as §1

| SMILES | Dead mice/test mice [1] | EC50 [2] [nM] | Proportion found by LCMS, Human, 0 minutes ([3]; 0 minutes) [%] | Proportion found by LCMS, Human, 30 minutes ([3]; 30 minutes) [%] | inhibition at 0.01 µM [4] [%] | Proportion found by LCMS, Rat, 0 minutes ([5]; 0 minutes) [%] | Proportion found by LCMS, Rat, 30 minutes ([5]; 30 minutes) [%] |
| --- | --- | --- | --- | --- | --- | --- | --- |
| CCCN(CCC)CCCCN(CC(=O)O)Cc1ccc(CN(Cc2ncc[nH]2)Cc2nccn2C)cc1 [Compound No. 84, [(4-dipropylamino-butyl)-(4-[[(1H-imidazol-2-ylmethyl)-(1-methyl-1H-imidazol-2-ylmethyl)-amino]-methyl]-benzyl)-amino]-acetic acid] | 0/3 | 3 | 1 | 80 | 88.3 | 24 | 100 |
| CCCN(CCC)CCCCc1nc2ccc(CN(Cc3ncc[nH]3)Cc3nccn3C)cc2n1CCC [Compound No. 4, [4-(6-{[(1H-imidazol-2-ylmethyl)-(1-methyl-1H-imidazol-2-ylmethyl)-amino]-methyl}-1-propyl-1H-benzimidazol-2-yl)-butyl]-dipropyl-amine] | 0/3 | 3 |  |  | 94.9 |  |  |
| CCCN(CCC)CCCCN(Cc1ccc(CN(Cc2ncc[nH]2)Cc2nccn2C)cc1)CC(F)(F)F [Compound No. 31, N-(4-{[(1H-imidazol-2-ylmethyl)-(1-methyl-1H-imidazol-2-ylmethyl)-amino]-methyl}-benzyl)-N′,N′-dipropyl-N-(2,2,2-trifluoro-ethyl)-butane-1,4-diamine] | 0/3 | 74 |  |  | 47.3 |  |  |
| CCCN(CCC)CCCCN(CCC(=O)O)Cc1ccc(CN(Cc2ncc[nH]2)Cc2nccn2C)cc1 [Compound No. 51, 3-[(4-dipropylamino-butyl)-(4-{[(1H-imidazol-2-ylmethyl)-(1-methyl-1H-imidazol-2-ylmethyl)-amino]-methyl}-benzyl)-amino]-propionic acid] | 0/3 | 2 |  |  | 85.8 |  |  |
| CCCN(CCC)CCCCN(Cc1ccc(CN(Cc2ncc[nH]2)Cc2nccn2C)cc1)S(C)(=O)=O [Compound No. 21, N-(4-dipropylamino-butyl)-N-(4-{[(1H-imidazol-2-ylmethyl)-(1-methyl-1H-imidazol-2-ylmethyl)-amino]-methyl}-benzyl)-methanesulfonamide] | 0/3 | 46 |  |  | 59.2 |  |  |
| CN(CCCCN1CCCCC1)Cc1ccc(CN(Cc2ncc[nH]2)Cc2nccn2C)cc1 [Compound No. 44, (4-{[(1H-imidazol-2-ylmethyl)-(1-methyl-1H-imidazol-2-ylmethyl)-amino]-methyl}-benzyl)-methyl-(4-piperidin-1-ylbutyl)amine] | 0/3 | 2 |  |  | 81.6 |  |  |
| CCCN(CCC)CCCCN(CC(=O)O)Cc1ccc(CN(Cc2nccn2C)Cc2nccn2C)cc1 [Compound No. 100, [(4-[[bis-(1-methyl-1H-imidazol-2-ylmethyl)-amino]-methyl]-benzyl)-(4-dipropylamino-butyl)-amino]-acetic acid] | 0/3 | 2 |  |  | 79.2 |  |  |
| CCCN(CCC)Cc1ccc(NC(=O)c2ccc(CN(Cc3ccc(CC)cn3)Cc3nccn3C)cc2)cc1 [Compound No. 16, 4-{[(5-ethyl-pyridin-2-ylmethyl)-(1-methyl-1H-imidazol-2-ylmethyl)-amino]-methyl}-N-(4-dipropylaminomethyl-phenyl)-benzamide] | 0/3 | 3 |  |  | 46.9 |  |  |
| CCCN(CCC)CCCCN1CCc2cc(CN(Cc3ncc[nH]3)Cc3nccn3C)ccc2C1 [Compound No. 17, [4-(6-{[(1H-imidazol-2-ylmethyl)-(1-methyl-1H-imidazol-2-ylmethyl)-amino]-methyl}-3,4-dihydro-1H-isoquinolin-2-yl)-butyl]-dipropyl-amine] | 0/3 | 3 |  |  | 93.5 |  |  |
| CCCN(CCC)CCCCN(CC#N)Cc1ccc(CN(Cc2ncc[nH]2)Cc2nccn2C)cc1 [Compound No. 82, [(4-dipropylamino-butyl)-(4-[[(1H-imidazol-2-ylmethyl)-(1-methyl-1H-imidazol-2-ylmethyl)-amino]-methyl]-benzyl)-amino]-acetonitrile] | 0/3 | 3 |  |  | 82.3 |  |  |
| CCCN(CCC)CCCCN(Cc1ccc(CN(Cc2ncc[nH]2)C2CCCc3cccnc32)cc1)S(C)(=O)=O (stereo not shown) [Compound No. 50, N-(4-dipropylamino-butyl)-N-(4-{[(1H-imidazol-2-ylmethyl)-(5,6,7,8-tetrahydro-quinolin-8-yl)-amino]-methyl}-benzyl)-methanesulfonamide] | 0/3 | 401 |  |  | 53.4 |  |  |
| CCCN(CCC)CCCc1cccc(-c2ccc(CN(Cc3ncc[nH]3)Cc3nccn3C)cc2)n1 [Compound No. 36, {3-[6-(4-{[(1H-imidazol-2-ylmethyl)-(1-methyl-1H-imidazol-2-ylmethyl)-amino]-methyl}-phenyl)-pyridin-2-yl]-propyl}-dipropyl-amine] | 0/3 | 656 |  |  | 58 |  |  |
| CCCN(CCC)CCCCN(CCC#N)Cc1ccc(CN(Cc2ncc[nH]2)Cc2nccn2C)cc1 [Compound No. 33, 3-[(4-dipropylamino-butyl)-(4-{[(1H-imidazol-2-ylmethyl)-(1-methyl-1H-imidazol-2-ylmethyl)-amino]-methyl}-benzyl)-amino]-propionitrile] | 0/3 | 3 |  |  | 85.2 |  |  |
| CCCN(CCC)CCCCNC(=O)c1ccc(CN(Cc2ccc(C)cn2)Cc2nccn2C)cc1 [Compound No. 20, N-(4-dipropylamino-butyl)-4-{[(1-methyl-1H-imidazol-2-ylmethyl)-(5-methyl-pyridin-2-ylmethyl)-amino]-methyl}-benzamide] | 0/3 | 4 |  |  | 73.2 |  |  |
| CCCN(CCC)CCCCN(CC(=O)O)Cc1ccc(CN(Cc2ncc[nH]2)Cc2ncc[nH]2)cc1 [Compound No. 88, [(4-[[bis-(1H-imidazol-2-ylmethyl)-amino]-methyl]-benzyl)-(4-dipropylamino-butyl)-amino]-acetic acid] | 0/3 | 2 |  |  | 85 |  |  |
| CCCN(CCC)CCCCN(C)C(=O)Nc1ccc(CN(Cc2ncc[nH]2)Cc2nccn2C)cc1 [Compound No. 26, 1-(4-dipropylamino-butyl)-3-(4-{[(1H-imidazol-2-ylmethyl)-(1-methyl-1H-imidazol-2-ylmethyl)-amino]-methyl}-phenyl)-1-methyl-urea] | 0/3 | 73 |  |  | 57.3 |  |  |
| CCCN(CCC)CCCCc1nc2ccc(CN(Cc3ncc[nH]3)Cc3nccn3C)cc2n1C [Compound No. 13, [4-(6-{[(1H-imidazol-2-ylmethyl)-(1-methyl-1H-imidazol-2-ylmethyl)-amino]-methyl}-1-methyl-1H-benzimidazol-2-yl)-butyl]-dipropyl-amine] | 0/3 | 3 |  |  | 75.5 |  |  |
| CCCN(CCC)CCCCN(Cc1ccc(CN(Cc2ncc[nH]2)Cc2nccn2C)cc1)C(=O)C(F)(F)F [Compound No. 37, N-(4-dipropylamino-butyl)-2,2,2-trifluoro-N-(4-{[(1H-imidazol-2-ylmethyl)-(1-methyl-1H-imidazol-2-ylmethyl)-amino]-methyl}-benzyl)-acetamide] | 0/3 | 3 |  |  | 92.3 |  |  |
| CCCN(CCC)CCCCN(CC(=O)OC)Cc1ccc(CN(Cc2ncc[nH]2)Cc2nccn2C)cc1 [Compound No. 83, [(4-dipropylamino-butyl)-(4-[[(1H-imidazol-2-ylmethyl)-(1-methyl-1H-imidazol-2-ylmethyl)-amino]-methyl]-benzyl)-amino]-acetic acid methyl ester] | 0/3 | 3 |  |  | 79.7 |  |  |
